Conditions: Week 4; <50% AEC reduction at Week 16

CCCN[C@@H]1CCc2nc(N)sc2C1 [Dexpramipexole, (6R)-2-amino-4,5,6,7-tetrahydro-6-(propylamino)benzothiazole]
Pre-BD FEF25-75 % change from baseline, Max: −9% | Pre-BD FEF25-75 % change from baseline, Mean ± SD: −19.8 ± 9.58% | Pre-BD FEF25-75 % change from baseline, Median: −19.3% | Pre-BD FEF25-75 % change from baseline, Min: −32% | Pre-BD FEF25-75 % change from baseline, Q1: −27% | Pre-BD FEF25-75 % change from baseline, Q3: −13% | Pre-BD FEF25-75 Observed, Max: 950 mL/s | Pre-BD FEF25-75 Observed, Mean ± SD: 507.5 ± 333.30 mL/s | Pre-BD FEF25-75 Observed, Median: 440.0 mL/s | Pre-BD FEF25-75 Observed, Min: 200 mL/s | Pre-BD FEF25-75 Observed, Q1: 255 mL/s | Pre-BD FEF25-75 Observed, Q3: 760 mL/s | Pre-BD FEF25-75 change from baseline, Max: -30 mL/s | Pre-BD FEF25-75 change from baseline, Mean ± SD: -167.5 ± 191.03 mL/s | Pre-BD FEF25-75 change from baseline, Median: -100.0 mL/s | Pre-BD FEF25-75 change from baseline, Min: -440 mL/s | Pre-BD FEF25-75 change from baseline, Q1: -300 mL/s | Pre-BD FEF25-75 change from baseline, Q3: -35 mL/s | Pre-BD FEV1 % change from baseline, Max: −1% | Pre-BD FEV1 % change from baseline, Mean ± SD: −16.4 ± 15.81% | Pre-BD FEV1 % change from baseline, Median: −13.3% | Pre-BD FEV1 % change from baseline, Min: −37% | Pre-BD FEV1 % change from baseline, Q1: −28% | Pre-BD FEV1 % change from baseline, Q3: −4% | Pre-BD FEV1 Observed, Max: 1680 mL | Pre-BD FEV1 Observed, Mean ± SD: 1260.0 ± 511.53 mL | Pre-BD FEV1 Observed, Median: 1420.0 mL | Pre-BD FEV1 Observed, Min: 520 mL | Pre-BD FEV1 Observed, Q1: 935 mL | Pre-BD FEV1 Observed, Q3: 1585 mL | Pre-BD FEV1 change from baseline, Max: -20 mL | Pre-BD FEV1 change from baseline, Mean ± SD: -212.5 ± 173.47 mL | Pre-BD FEV1 change from baseline, Median: -215.0 mL | Pre-BD FEV1 change from baseline, Min: -400 mL | Pre-BD FEV1 change from baseline, Q1: -355 mL | Pre-BD FEV1 change from baseline, Q3: -70 mL | Pre-BD FVC % change from baseline, Max: 0% | Pre-BD FVC % change from baseline, Mean ± SD: −9.0 ± 13.97% | Pre-BD FVC % change from baseline, Median: −2.9% | Pre-BD FVC % change from baseline, Min: −30% | Pre-BD FVC % change from baseline, Q1: −17% | Pre-BD FVC % change from baseline, Q3: −1% | Pre-BD FVC Observed, Max: 3480 mL | Pre-BD FVC Observed, Mean ± SD: 2755.0 ± 729.41 mL | Pre-BD FVC Observed, Median: 2875.0 mL | Pre-BD FVC Observed, Min: 1790 mL | Pre-BD FVC Observed, Q1: 2215 mL | Pre-BD FVC Observed, Q3: 3295 mL | Pre-BD FVC change from baseline, Max: -10 mL | Pre-BD FVC change from baseline, Mean ± SD: -240.0 ± 350.90 mL | Pre-BD FVC change from baseline, Median: -95.0 mL | Pre-BD FVC change from baseline, Min: -760 mL | Pre-BD FVC change from baseline, Q1: -450 mL | Pre-BD FVC change from baseline, Q3: -30 mL | Pre-BD Peak Flow % change from baseline, Max: 428% | Pre-BD Peak Flow % change from baseline, Mean ± SD: 90.4 ± 224.72% | Pre-BD Peak Flow % change from baseline, Median: −20.4% | Pre-BD Peak Flow % change from baseline, Min: −25% | Pre-BD Peak Flow % change from baseline, Q1: −24% | Pre-BD Peak Flow % change from baseline, Q3: 205% | Pre-BD Peak Flow Observed, Max: 211 L/min | Pre-BD Peak Flow Observed, Mean ± SD: 167.5 ± 49.57 L/min | Pre-BD Peak Flow Observed, Median: 180.5 L/min | Pre-BD Peak Flow Observed, Min: 98 L/min | Pre-BD Peak Flow Observed, Q1: 133 L/min | Pre-BD Peak Flow Observed, Q3: 202 L/min | Pre-BD Peak Flow change from baseline, Max: 171 L/min | Pre-BD Peak Flow change from baseline, Mean ± SD: 11.0 ± 107.23 L/min | Pre-BD Peak Flow change from baseline, Median: -35.5 L/min | Pre-BD Peak Flow change from baseline, Min: -56 L/min | Pre-BD Peak Flow change from baseline, Q1: -49 L/min | Pre-BD Peak Flow change from baseline, Q3: 71 L/min

— patent US20250352520A1, “USE OF DEXPRAMIPEXOLE FOR THE TREATMENT OF EOSINOPHILIC COPD” (Areteia Therapeutics, Inc., priority 2024, published 2025)
